Assay type in all cases: cell-based
The test system of one test is HEK293-STF3A cells. The test is described as follows: STF3A assay (luciferase reporter). The settings on record: Homo sapiens, 24 h, 1 day of treatment. In a few lines: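 HEK293 cells stably carrying the STF luciferase reporter and expressing Wnt3A, seeded at 2×10^4 cells/well and grown overnight. Serially diluted compound (final 50 μM to 1.5 nM) applied for 1 day at 37 °C. Steady-Glo luciferase luminescence read after 10 min at room temperature.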

The test system of test [1] is p-LRP6 (Ser1490). The test is described as follows: Phospho-LRP6 assay, time course, PA-1 teratocarcinoma cells. On the procedure:
FIGS. 3A-3B show the time-course of p-LRP6 (Ser 1490) inhibition (in vitro) induced by porcupine inhibitors. FIG. 3A is a Western blot analysis of PA-1 teratocarcinoma cells treated with 2 μM of Compound 5, for the time points indicated with antibodies as indicated on the left. As a control, cells treated with either growth medium alone or the vehicle (DMSO) for 48 h were included. FIG. 3B is a densitometric analysis of pLRP6 relative to total LRP6.
The present target efficacy biomarker assay measures a decrease in levels of p-LRP6 (i.e. phosphorylated LRP-6) (Ser1490) upon treatment with a porcupine inhibitor (Compound 5). […] The inhibitory effect remains up to 72 h (data not shown) in the presence of the compound and up to 12 h after the compound has been removed (data not shown).

Test [2] has as its system p-LRP6 (Ser1490). The test is described as follows: Phospho-LRP6 assay, dose titration, HPAF-II pancreatic adenocarcinoma cells. On the procedure: FIGS. 4A-4B show pLRP6 in vitro inhibition-dose titration. FIG. 4A is a Western blot analysis of HPAF-II pancreatic adenocarcinoma cells treated with the indicated doses of Compound 5 for 6 h with antibodies as indicated on the left. The […] controls are a cell lysate of untreated STF3A cells and cells treated with vehicle only (DMSO). FIG. 4B is a densitometric analysis of pLRP6 relative to total LRP6.
While 2 μM led to 50-60% inhibition after 6 h of in vitro treatment, 3.3 nM of Compound 5 still inhibited p-LRP6 (Ser1490) by about 20% in this assay (FIG. 4).

Usually IC50 stands for the concentration at which inhibition is half-maximal. A higher IC50 goes with weaker potency. For orientation: inhibition means the drop in the measured response relative to a control, in per cent. A lower inhibition goes with little suppression. `Cn1c(=O)c2c(ncn2CC(=O)Nc2ccc(-c3ccccc3)nn2)n(C)c1=O` [Compound 5, 2-(1,3-dimethyl-2,6-dioxo-1,2,3,6-tetrahydro-7H-purin-7-yl)-N-(6-phenylpyridazin-3-yl)acetamide]: the IC50 in the test with HEK293-STF3A cells was less than 100 nM. In addition, in the test on p-LRP6 (Ser1490) [1] (2 μM, from 4 h onwards, in vitro (FIG. 3)), the “reduction in p-LRP6” value is “greater than 50%”. Besides, in the test on p-LRP6 (Ser1490) [1] (data not shown), the “duration of inhibitory effect after the compound has been removed” value was “up to 12 h” and the “duration of inhibitory effect in the presence of the compound” value is given as “up to 72 h”. This molecule displayed an inhibition at 0.0033 µM in the test with p-LRP6 (Ser1490) [2] (Homo sapiens, HPAF-II, 3.3 nM, 6 h (FIG. 4)) of roughly 20%. The molecule also came in with an inhibition at 2 µM in the test on p-LRP6 (Ser1490) [2] (Homo sapiens, HPAF-II, 2 μM, after 6 h of in vitro treatment (FIG. 4)) of 50 to 60%. For the same molecule, the “inhibition of p-LRP6” value in the test with p-LRP6 (Ser1490) [2] (concentrations lower than 3.3 nM, HPAF-II cells (data not shown)) is on record as “did not inhibit”.

These data come from patent publication US12559495B2 (Agency for Science, Technology and Research, priority 2013, dated 2026).
